Results as given in ChEMBL document CHEMBL5291721, “A preclinical secondary pharmacology resource illuminates target-adverse drug reaction associations of marketed drugs” (Nat Commun, 2023).

Tests used:
[1] = biological target: Histamine H2 receptor (Homo sapiens, UniProt P25021); type: functional, cell-based
[2] = biological target: T1, 5-hydroxytryptamine receptor 3A (Homo sapiens, UniProt P46098); type: functional
T1 sequence (P46098 whole entry): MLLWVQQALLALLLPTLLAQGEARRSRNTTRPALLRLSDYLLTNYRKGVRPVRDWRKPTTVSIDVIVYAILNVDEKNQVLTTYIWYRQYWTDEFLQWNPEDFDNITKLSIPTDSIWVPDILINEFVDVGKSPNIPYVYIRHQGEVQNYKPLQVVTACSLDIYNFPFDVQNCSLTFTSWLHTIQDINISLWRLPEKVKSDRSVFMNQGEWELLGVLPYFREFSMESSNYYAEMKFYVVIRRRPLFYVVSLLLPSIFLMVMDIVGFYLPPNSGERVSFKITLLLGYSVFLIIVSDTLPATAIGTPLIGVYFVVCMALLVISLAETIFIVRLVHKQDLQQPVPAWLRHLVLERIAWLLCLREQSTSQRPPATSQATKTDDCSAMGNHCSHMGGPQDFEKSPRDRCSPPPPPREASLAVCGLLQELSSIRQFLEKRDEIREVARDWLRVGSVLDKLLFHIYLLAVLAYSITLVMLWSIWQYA

[3] = biological target: T2, Glucocorticoid receptor (Homo sapiens, UniProt P04150)
T2 sequence (P04150 whole entry): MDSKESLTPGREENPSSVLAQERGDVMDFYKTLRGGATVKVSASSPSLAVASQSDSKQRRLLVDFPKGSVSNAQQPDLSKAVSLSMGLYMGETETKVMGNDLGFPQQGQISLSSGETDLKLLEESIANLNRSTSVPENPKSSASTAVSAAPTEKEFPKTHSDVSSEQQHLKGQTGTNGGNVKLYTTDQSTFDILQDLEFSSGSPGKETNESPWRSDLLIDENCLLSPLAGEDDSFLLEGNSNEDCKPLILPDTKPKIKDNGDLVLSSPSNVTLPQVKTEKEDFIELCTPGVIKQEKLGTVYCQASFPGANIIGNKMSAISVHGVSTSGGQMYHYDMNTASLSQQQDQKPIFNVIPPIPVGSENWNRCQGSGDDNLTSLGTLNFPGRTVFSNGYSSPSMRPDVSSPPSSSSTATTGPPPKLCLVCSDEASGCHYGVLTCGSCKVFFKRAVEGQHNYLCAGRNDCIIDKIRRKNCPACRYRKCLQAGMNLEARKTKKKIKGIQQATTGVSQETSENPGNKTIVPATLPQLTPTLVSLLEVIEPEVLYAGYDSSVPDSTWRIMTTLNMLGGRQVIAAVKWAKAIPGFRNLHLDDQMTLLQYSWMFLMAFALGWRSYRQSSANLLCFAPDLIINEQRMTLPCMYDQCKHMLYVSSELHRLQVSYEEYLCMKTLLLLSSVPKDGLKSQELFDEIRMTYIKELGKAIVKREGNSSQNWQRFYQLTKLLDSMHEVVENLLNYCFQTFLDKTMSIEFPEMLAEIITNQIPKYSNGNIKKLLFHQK

[4] = biological target: T3, Thromboxane A2 receptor (Homo sapiens, UniProt P21731)
T3 sequence (P21731 whole entry): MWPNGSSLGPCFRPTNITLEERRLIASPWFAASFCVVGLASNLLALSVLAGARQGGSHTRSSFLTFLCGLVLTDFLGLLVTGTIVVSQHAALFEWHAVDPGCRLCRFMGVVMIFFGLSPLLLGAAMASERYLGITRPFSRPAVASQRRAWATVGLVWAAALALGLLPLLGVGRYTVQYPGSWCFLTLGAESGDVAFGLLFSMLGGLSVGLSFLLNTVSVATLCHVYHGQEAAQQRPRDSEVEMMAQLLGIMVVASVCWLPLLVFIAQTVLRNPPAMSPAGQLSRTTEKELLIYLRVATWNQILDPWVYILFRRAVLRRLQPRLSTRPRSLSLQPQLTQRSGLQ

[5] = biological target: cGMP-inhibited 3',5'-cyclic phosphodiesterase 3A (Homo sapiens, UniProt Q14432); type: functional
cGMP-inhibited 3',5'-cyclic phosphodiesterase 3A, sequence (Q14432 whole entry): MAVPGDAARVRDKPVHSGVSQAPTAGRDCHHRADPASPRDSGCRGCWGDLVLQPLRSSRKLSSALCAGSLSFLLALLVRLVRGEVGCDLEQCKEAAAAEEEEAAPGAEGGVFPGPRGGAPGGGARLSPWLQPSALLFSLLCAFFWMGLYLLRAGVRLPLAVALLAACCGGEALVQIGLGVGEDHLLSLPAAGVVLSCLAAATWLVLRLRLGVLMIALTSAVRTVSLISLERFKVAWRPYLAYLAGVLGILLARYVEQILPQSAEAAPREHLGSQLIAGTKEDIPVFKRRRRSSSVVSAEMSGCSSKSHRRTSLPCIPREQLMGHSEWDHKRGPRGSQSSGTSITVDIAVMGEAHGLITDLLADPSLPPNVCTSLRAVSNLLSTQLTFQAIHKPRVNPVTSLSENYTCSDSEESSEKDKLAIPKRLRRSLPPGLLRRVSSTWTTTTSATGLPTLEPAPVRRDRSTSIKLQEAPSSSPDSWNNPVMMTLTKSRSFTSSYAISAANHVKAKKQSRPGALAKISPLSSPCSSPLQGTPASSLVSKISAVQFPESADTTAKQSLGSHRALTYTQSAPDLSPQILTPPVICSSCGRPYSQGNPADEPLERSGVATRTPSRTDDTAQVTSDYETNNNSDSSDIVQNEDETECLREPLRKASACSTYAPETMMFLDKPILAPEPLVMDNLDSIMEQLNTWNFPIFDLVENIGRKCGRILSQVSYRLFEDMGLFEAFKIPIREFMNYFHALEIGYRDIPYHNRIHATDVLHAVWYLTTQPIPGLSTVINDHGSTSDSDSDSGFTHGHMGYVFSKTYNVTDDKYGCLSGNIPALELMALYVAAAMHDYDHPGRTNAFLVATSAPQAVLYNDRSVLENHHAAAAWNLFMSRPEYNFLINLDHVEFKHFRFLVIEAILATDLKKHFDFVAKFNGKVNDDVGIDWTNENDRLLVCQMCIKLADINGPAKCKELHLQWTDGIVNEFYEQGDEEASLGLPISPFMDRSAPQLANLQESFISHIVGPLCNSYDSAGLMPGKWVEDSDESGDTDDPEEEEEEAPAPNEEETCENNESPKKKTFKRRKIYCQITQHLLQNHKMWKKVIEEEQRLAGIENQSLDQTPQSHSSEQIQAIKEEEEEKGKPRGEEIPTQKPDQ

[6] = biological target: D(3) dopamine receptor (Homo sapiens, UniProt P35462)
D(3) dopamine receptor, sequence (P35462 whole entry): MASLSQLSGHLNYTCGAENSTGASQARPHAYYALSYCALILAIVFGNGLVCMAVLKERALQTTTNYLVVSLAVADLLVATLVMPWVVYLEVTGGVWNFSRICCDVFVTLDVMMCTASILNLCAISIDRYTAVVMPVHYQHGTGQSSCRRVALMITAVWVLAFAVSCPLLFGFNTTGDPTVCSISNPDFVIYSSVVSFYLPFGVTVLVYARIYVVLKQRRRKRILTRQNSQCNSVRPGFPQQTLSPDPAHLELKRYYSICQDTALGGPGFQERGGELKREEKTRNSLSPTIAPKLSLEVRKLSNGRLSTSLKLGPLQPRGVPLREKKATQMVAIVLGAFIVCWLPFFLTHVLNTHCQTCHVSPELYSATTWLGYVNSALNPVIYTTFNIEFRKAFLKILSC

[7] = biological target: Mu-type opioid receptor (Homo sapiens, UniProt P35372); test: biochemical; type: functional
Mu-type opioid receptor, sequence (P35372 whole entry): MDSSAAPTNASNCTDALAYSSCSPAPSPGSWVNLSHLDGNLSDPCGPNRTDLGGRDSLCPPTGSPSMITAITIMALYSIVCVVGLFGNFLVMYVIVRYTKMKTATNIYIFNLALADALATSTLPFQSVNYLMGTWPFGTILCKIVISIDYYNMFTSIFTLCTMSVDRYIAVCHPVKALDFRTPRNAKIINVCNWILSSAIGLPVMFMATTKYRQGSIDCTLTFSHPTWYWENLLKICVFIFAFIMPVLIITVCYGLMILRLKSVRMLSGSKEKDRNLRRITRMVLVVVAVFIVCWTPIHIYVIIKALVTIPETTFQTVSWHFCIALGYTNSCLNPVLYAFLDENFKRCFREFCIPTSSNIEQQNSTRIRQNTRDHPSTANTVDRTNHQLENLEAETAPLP
Also: assay procedure not described here.

Histamine H2 receptor, sequence (P25021 whole entry): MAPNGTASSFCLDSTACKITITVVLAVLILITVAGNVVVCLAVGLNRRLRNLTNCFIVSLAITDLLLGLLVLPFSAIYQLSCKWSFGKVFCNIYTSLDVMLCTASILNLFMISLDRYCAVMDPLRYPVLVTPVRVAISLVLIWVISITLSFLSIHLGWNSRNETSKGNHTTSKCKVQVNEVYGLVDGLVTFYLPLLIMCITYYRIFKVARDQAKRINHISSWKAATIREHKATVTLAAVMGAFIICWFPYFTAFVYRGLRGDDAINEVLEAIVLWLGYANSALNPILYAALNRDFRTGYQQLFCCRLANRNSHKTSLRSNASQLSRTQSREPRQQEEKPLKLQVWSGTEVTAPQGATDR

Compound | AC50 [1] [µM] | AC50 [2] [µM] | AC50 [3] [µM] | AC50 [4] [µM] | AC50 [5] [µM] | AC50 [6] [µM] | AC50 [7] [µM]
C[N+]1(C)CCC(=C(c2ccccc2)c2ccccc2)CC1 | > 10 | 6.1 | > 10 | > 30 | > 30 | > 30 | –
C[N+](C)(C)CCOP(=O)([O-])OC[C@H](O)CO | > 30 | > 30 | > 30 | > 30 | > 30 | > 30 | > 30
CN(C)Cc1nnc2n1-c1ccc(Cl)cc1C(c1ccccc1)=NC2 [ADINAZOLAM] | > 10 | > 30 | > 10 | > 10 | > 30 | > 30 | –
CN(C)C/C=C/C(=O)Nc1cc2c(Nc3ccc(F)c(Cl)c3)ncnc2cc1O[C@H]1CCOC1 [AFATINIB] | > 30 | > 30 | > 30 | – | > 30 | > 30 | > 30
Cc1ccccc1-n1c(CF)nc2ccc(N)cc2c1=O [AFLOQUALONE] | > 30 | > 30 | – | > 30 | > 30 | > 30 | > 30
CCC1(c2ccc(N)cc2)CCC(=O)NC1=O (configuration not stated) [AMINOGLUTETHIMIDE] | > 30 | > 30 | > 30 | > 30 | 10 | > 30 | > 30
CC1=C(C(=O)OC(C)C)C(c2cccc([N+](=O)[O-])c2)C(C(=O)OC2CN(C(c3ccccc3)c3ccccc3)C2)=C(N)N1 (configuration not stated) [AZELNIDIPINE] | > 30 | > 30 | > 30 | > 30 | > 30 | > 30 | > 30
CC(Cc1cccc(C(F)(F)F)c1)NCCOC(=O)c1ccccc1 (configuration not stated) [BENFLUOREX] | > 30 | – | > 30 | > 30 | – | 2.63 | 11
CCOC(=O)c1ccc(N)cc1 [BENZOCAINE] | > 10 | > 30 | > 10 | > 10 | > 30 | > 30 | –
CC(C)(Oc1ccc(CCNC(=O)c2ccc(Cl)cc2)cc1)C(=O)O [BEZAFIBRATE] | > 10 | > 30 | > 10 | > 10 | > 30 | > 30 | –
CC(O)(CS(=O)(=O)c1ccc(F)cc1)C(=O)Nc1ccc(C#N)c(C(F)(F)F)c1 (configuration not stated) [BICALUTAMIDE] | > 10 | > 10 | > 30 | > 30 | > 10 | > 10 | –
CC(=O)O[C@]1(C(C)=O)CC[C@H]2[C@@H]3C=C(Cl)C4=CC(=O)[C@@H]5C[C@@H]5[C@]4(C)[C@H]3CC[C@@]21C [CYPROTERONE ACETATE] | – | > 30 | – | > 30 | > 30 | > 30 | –
C/C=C(/C(=C/C)c1ccc(O)cc1)c1ccc(O)cc1 [DIENESTROL] | > 10 | > 30 | 0.736 | > 10 | > 30 | > 30 | > 30
CN[C@]1(c2ccccc2Cl)CCCCC1=O [ESKETAMINE] | > 30 | > 30 | > 30 | > 30 | > 30 | > 30 | > 30
COc1ccc([C@@H]2CC(=O)c3c(O)cc(O)cc3O2)cc1O [HESPERETIN] | > 30 | > 30 | > 10 | > 10 | 21 | > 30 | > 30
CNCCc1ccc(OC(=O)C(C)C)c(OC(=O)C(C)C)c1 [IBOPAMINE] | > 30 | > 30 | > 30 | > 30 | > 30 | 0.767 | > 30
CN(C)CCCN1c2ccccc2CCc2ccccc21 [IMIPRAMINE] | > 10 | > 10 | > 30 | > 30 | > 10 | 0.41 | 28
CCOC(=O)C1=C(C)NC(C)=C(C(=O)OCC)C1c1ccccc1/C=C/C(=O)OC(C)(C)C [LACIDIPINE] | > 30 | > 30 | > 30 | > 30 | > 30 | > 30 | > 30
CCC[C@@H]1C[C@@H](C(=O)N[C@@H]([C@H]2O[C@H](SC)[C@H](O)[C@@H](O)[C@H]2O)[C@@H](C)O)N(C)C1 [LINCOMYCIN] | > 10 | > 30 | > 10 | > 10 | > 30 | > 30 | > 30
COC(=O)C1=C(C)NC(C)=C(C(=O)OCCN2CCN(C(c3ccccc3)c3ccccc3)CC2)C1c1cccc([N+](=O)[O-])c1 (configuration not stated) [MANIDIPINE 6300] | > 30 | > 30 | > 30 | > 30 | > 30 | 6.3 | > 30
C=C1c2cccc(O)c2C(=O)C2=C(O)[C@]3(O)C(=O)C(C(N)=O)=C(O)[C@@H](N(C)C)[C@@H]3[C@@H](O)[C@H]12 [METHACYCLINE] | > 10 | > 30 | > 30 | > 30 | > 30 | > 30 | –
CN(Cc1cnc2nc(N)nc(N)c2n1)c1ccc(C(=O)N[C@@H](CCC(=O)O)C(=O)O)cc1 [METHOTREXATE] | > 10 | > 30 | – | > 30 | > 30 | > 30 | –
Cc1ccccc1N1C(=O)c2cc(S(N)(=O)=O)c(Cl)cc2NC1C (configuration not stated) [METOLAZONE] | > 10 | > 30 | > 10 | > 10 | > 30 | > 30 | > 30
O=C(O)c1cccnc1Nc1cccc(C(F)(F)F)c1 [NIFLUMIC ACID] | > 10 | > 30 | > 10 | > 10 | > 30 | > 30 | > 30
O=C1c2cccc3c2[C@H](CCC3)CN1[C@@H]1CN2CCC1CC2 [PALONOSETRON] | > 30 | 0.0021 | > 30 | > 30 | > 30 | 29 | > 30
OC[C@H]1O[C@@H](n2cnc3c2NC=NC[C@H]3O)C[C@@H]1O [PENTOSTATIN] | > 30 | > 30 | > 30 | – | > 30 | > 30 | > 30
O=C1c2ccccc2C(=O)C1c1ccccc1 [PHENINDIONE] | > 10 | > 30 | > 10 | > 10 | > 30 | > 30 | –
CC(C)c1cccc(C(C)C)c1O [PROPOFOL] | – | > 30 | – | – | > 30 | > 30 | –
C[C@]12CCC(=O)C[C@@H]1CC[C@@H]1[C@@H]2CC[C@]2(C)[C@@H](O)CC[C@@H]12 [STANOLONE] | > 30 | > 30 | – | > 30 | > 30 | > 30 | > 30
C[C@]12C=CC(=O)C=C1CC[C@@H]1[C@@H]2CC[C@]2(C)OC(=O)CC[C@@H]12 [TESTOLACTONE] | > 10 | > 30 | – | > 10 | > 30 | > 30 | > 30
